Measured values published in PubChem BioAssay AID651630 (Sanford-Burnham Center for Chemical Genomics, 2012).
The source made the active and inactive calls.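 The calls were made as follows: active = lipid-stain IC50 at or below a set limit, with nuclear-stain toxicity IC50 at least five times higher; inactive = the rest.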

Tests used:
DAPI = assay: triacylglycerol accumulation inhibitor potency, dose response, cell-based, panel, Nile Red and DAPI fluorescence, H9c2 (AID 651630); conditions: H9c2 cells, DAPI nuclear fluorescence (cytotoxicity counter-readout), oleic acid;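 also: cells exposed to compound overnight before fixation and staining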
TAG = assay: as above; conditions: H9c2 cells, Nile Red TAG fluorescence, oleic acid

SMILES | IC50 (TAG; mean of runs) | IC50 (TAG; run 1) [µM] | IC50 (TAG; run 2) [µM] | IC50 cytotoxicity (DAPI nuclear signal decrease) (DAPI; mean of runs) | IC50 cytotoxicity (DAPI nuclear signal decrease) (DAPI; run 1) [µM] | IC50 cytotoxicity (DAPI nuclear signal decrease) (DAPI; run 2) [µM]
Clc1cccc(Nc2nc(-c3ccncc3)cs2)c1 | > 25 µM (inactive) | > 25 | > 25 | > 25 µM (inactive) | > 25 | > 25
Cc1cc(C)c(NC(=O)CSc2nc3ccc(NC(=O)CSc4nnnn4Cc4ccccc4)cc3s2)c(C)c1 | > 25 µM (inactive) | > 25 | > 25 | > 25 µM (inactive) | > 25 | > 25
COc1cc2c(c(OC)c1OC)-c1ccc(SC)c(=O)cc1C(NC=O)CC2 (stereo not drawn) | > 25 µM (inactive) | > 25 | > 25 | > 25 µM (inactive) | > 25 | > 25
COc1cc(C(CCN2CCCCC2)c2c(OC)cc(OC)c3c(-c4ccccc4)cc(=O)oc23)cc(OC)c1OC (stereo not drawn) | > 25 µM (inactive) | > 25 | > 25 | > 25 µM (inactive) | > 25 | > 25
Cc1nn2c(NCc3ccccn3)c3c(nc2c1-c1ccccc1)CCC3 | > 25 µM (inactive) | > 25 | > 25 | > 25 µM (inactive) | > 25 | > 25
COC(=O)c1cc(C(=O)N2CCN(c3cccc(Cl)c3)CC2)cc([N+](=O)[O-])c1 | – | 22.4 | > 25 | > 25 µM (inactive) | > 25 | > 25
CC(=O)O[C@H]1C(=O)[C@]2(C)[C@H]([C@H](OC(=O)c3ccccc3)[C@]3(O)C[C@H](OC(=O)[C@H](O)[C@@H](NC(=O)c4ccccc4)c4ccccc4)C(C)=C1C3(C)C)[C@]1(OC(C)=O)CO[C@@H]1C[C@@H]2O | > 25 µM (inactive) | > 25 | > 25 | > 25 µM (inactive) | > 25 | > 25
CCOC(=O)c1cc(-c2ccccc2)sc1NC(=O)COC(=O)c1cccc(S(N)(=O)=O)c1 | – | > 25 | 21.4 | > 25 µM (inactive) | > 25 | > 25
CCC(=O)Nc1ccc(-c2nnc(-c3ccccc3)o2)cc1 | > 25 µM (inactive) | > 25 | > 25 | > 25 µM (inactive) | > 25 | > 25
O=C(Cc1n[nH]c(=O)c2ccccc12)OCC(=O)c1ccc2c(c1)OCCO2 | > 25 µM (inactive) | > 25 | > 25 | > 25 µM (inactive) | > 25 | > 25
O=C(Nc1ccccc1)c1nc[nH]c1C(=O)NCCCCCCNC(=O)c1[nH]cnc1C(=O)Nc1ccccc1 | – | 24.9 | > 25 | > 25 µM (inactive) | > 25 | > 25
CC(C)N1CSC(=S)N(Cc2ccccc2)C1 | > 25 µM (inactive) | > 25 | > 25 | > 25 µM (inactive) | > 25 | > 25
CCN(C(=O)COC(=O)c1cc(-c2ccccc2)nc2c1c(C)nn2-c1ccc(C)cc1)C1CCS(=O)(=O)C1 (stereo not drawn) | > 25 µM (inactive) | > 25 | > 25 | > 25 µM (inactive) | > 25 | > 25
O=C(Nc1nc(-c2ccccc2)cs1)C1CCCN(S(=O)(=O)c2cccc([N+](=O)[O-])c2)C1 (stereo not drawn) | – | 22.1 | > 25 | > 25 µM (inactive) | > 25 | > 25
CCCN(CCC)CCNC(=O)c1cc2c(=O)n(CC)c3ccccc3c2s1 | > 25 µM (inactive) | > 25 | > 25 | > 25 µM (inactive) | > 25 | > 25
CC(C)C[C@@H](CN1CCCC1CN1C(=S)NC[C@@H]1Cc1ccc(O)cc1)N1C[C@H](Cc2ccccc2)N(CC2CCCCC2)C1=S (stereo partly drawn) | > 25 µM (inactive) | > 25 | > 25 | 21.8 µM (inactive) | 21.7 | 21.8
CN(C)c1ccc(NC(=O)CSc2nc3ccccc3c(=O)n2C2CCCCC2)cc1 | – | > 25 | 20 | > 25 µM (inactive) | > 25 | > 25

Compounds with a lower IC50 (TAG; run 1), results first:

IC50 (TAG; mean of runs) | IC50 (TAG; run 1) [µM] | IC50 (TAG; run 2) [µM] | SMILES | IC50 cytotoxicity (DAPI nuclear signal decrease) (DAPI; mean of runs) | IC50 cytotoxicity (DAPI nuclear signal decrease) (DAPI; run 1) [µM] | IC50 cytotoxicity (DAPI nuclear signal decrease) (DAPI; run 2) [µM]
6.22 µM | 6.27 | 6.17 | O=C(Nc1cccc2ncccc12)c1ccc(Cl)cc1 | > 25 µM (inactive) | > 25 | > 25
3.69 µM | 3.93 | 3.46 | O=C(Nc1ccc([N+](=O)[O-])cn1)c1cc(-c2cccc(Cl)c2)nc2ccccc12 | – | > 25 | > 25
3.9 µM | 4.38 | 3.41 | CC(C)c1ccc(Nc2nc(N3CCOCC3)nc(N3CCOCC3)n2)cc1 | – | > 25 | > 25
5.16 µM | 7.19 | 3.13 | C=CCNc1nc(Nc2ccc(OC)c(OC)c2)c2sc(-c3ccccc3)cc2n1 | > 25 µM (inactive) | > 25 | > 25
< 0.78 µM | < 0.78 | < 0.78 | COc1ccc(N=C2C(=Nc3ccc(OC)cc3)N(c3ccc(OC)cc3)C(=S)N2C(=O)c2ccc(OC)cc2)cc1 | – | > 25 | > 25
3.44 µM | 2.41 | 4.47 | COc1ccc(-c2nc3ccc(Cl)cn3c2NC2CCCCC2)cc1SC1CCCCC1 | – | > 25 | > 25
7.66 µM | 8.73 | 6.6 | Cc1ccc2oc(NC3=NC4(CCCC4)C4=C(CCCC4=O)N3)nc2c1 | > 25 µM (inactive) | > 25 | > 25
3.69 µM | 3.57 | 3.8 | c1ccc(N=NC2=NN(c3ccccc3)CS2)cc1 | – | > 25 | > 25
– | 10.3 | > 25 | OC1CC2CCC(C1)N2CCCN1c2ccccc2Sc2ccc(Cl)cc21 (stereo not drawn) | – | 19.4 | > 25
3.47 µM | 5.5 | 1.44 | O=c1cc(N2CCN(c3cccc(Cl)c3)CC2)[nH]c(=O)n1C1CCCCC1 | – | 18.2 | > 25
8.37 µM | 7.74 | 9 | Nc1c(Cl)cc(-c2csc(N3CCCC3c3nc4cc(Cl)c(Cl)cc4n3CCCO)n2)cc1Cl (stereo not drawn) | > 25 µM (inactive) | > 25 | > 25
3.06 µM | 2.87 | 3.24 | Cc1nc(C(=O)Nc2ccccc2Cl)cc2c1[nH]c1ccccc12 | – | > 25 | > 25
13.8 µM | 12.3 | 15.3 | CC(C)(C)NC(=O)C(c1ccc(-c2ccccc2)cc1)N(C[C@H]1CC[C@@H]([C@@H]2CC[C@H](CO)O2)O1)C(=O)c1ccc(-c2ccccc2)cc1 (stereo partly drawn) | > 25 µM (inactive) | > 25 | > 25
4.98 µM | 6.17 | 3.8 | CCN1CCN(Cc2ccc(NC(=O)c3ccc(C)c(NC(=O)C(=O)c4c[nH]c5ccccc45)c3)cc2C(F)(F)F)CC1 | 23.8 µM (inactive) | 24.4 | 23.1
1.63 µM | 1.64 | 1.61 | COc1cccc(/C=C/C(=C2/C(=O)N(c3ccccc3)N=C2C)c2ccc(C)cc2)c1OC | – | > 25 | > 25
3.91 µM | 3.31 | 4.5 | COc1cc(CNC(=O)Nc2nc(C(N)Cc3ccc(Cl)cc3)cs2)cc(OC)c1OC (stereo not drawn) | – | > 25 | > 25
10.7 µM | 10.6 | 10.8 | Cc1ccccc1NC(=O)CSc1nc2ccc(Nc3nc(N4CCOCC4)nc(N4CCOCC4)n3)cc2s1 | > 25 µM (inactive) | > 25 | > 25
